Target: T1, α4β7 integrin (Homo sapiens, UniProt P13612+P26010)
T1 construct: monitoring the capture of α4β7 integrin expressing cells; endogenous in cells; host or cells: RPMI8866 cells
T1 sequence (P13612 34-1032): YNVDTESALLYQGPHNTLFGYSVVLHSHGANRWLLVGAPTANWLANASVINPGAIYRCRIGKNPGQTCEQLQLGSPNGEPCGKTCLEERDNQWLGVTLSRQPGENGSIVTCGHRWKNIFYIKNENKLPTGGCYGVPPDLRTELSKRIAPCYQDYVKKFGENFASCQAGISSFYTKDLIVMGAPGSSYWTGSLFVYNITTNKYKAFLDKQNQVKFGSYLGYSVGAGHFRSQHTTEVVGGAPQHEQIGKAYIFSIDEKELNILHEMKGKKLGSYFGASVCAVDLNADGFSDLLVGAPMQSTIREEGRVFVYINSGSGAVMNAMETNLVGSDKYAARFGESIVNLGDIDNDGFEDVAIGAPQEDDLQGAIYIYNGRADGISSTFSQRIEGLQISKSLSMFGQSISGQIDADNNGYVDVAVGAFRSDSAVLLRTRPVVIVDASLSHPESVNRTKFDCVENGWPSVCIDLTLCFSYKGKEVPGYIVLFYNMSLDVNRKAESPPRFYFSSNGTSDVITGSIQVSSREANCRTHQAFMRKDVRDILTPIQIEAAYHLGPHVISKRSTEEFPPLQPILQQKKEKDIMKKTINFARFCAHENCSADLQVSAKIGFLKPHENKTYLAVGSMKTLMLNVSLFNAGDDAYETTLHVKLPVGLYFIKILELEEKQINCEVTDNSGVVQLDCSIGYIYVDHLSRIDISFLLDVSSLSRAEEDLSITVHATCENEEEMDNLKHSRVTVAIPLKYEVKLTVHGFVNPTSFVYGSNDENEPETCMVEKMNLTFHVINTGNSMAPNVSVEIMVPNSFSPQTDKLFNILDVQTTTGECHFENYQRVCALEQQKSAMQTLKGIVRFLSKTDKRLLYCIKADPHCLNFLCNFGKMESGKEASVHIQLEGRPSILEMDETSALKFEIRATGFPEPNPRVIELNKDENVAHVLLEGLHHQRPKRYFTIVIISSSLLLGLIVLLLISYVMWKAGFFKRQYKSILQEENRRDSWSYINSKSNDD
T1 sequence (P26010 20-798): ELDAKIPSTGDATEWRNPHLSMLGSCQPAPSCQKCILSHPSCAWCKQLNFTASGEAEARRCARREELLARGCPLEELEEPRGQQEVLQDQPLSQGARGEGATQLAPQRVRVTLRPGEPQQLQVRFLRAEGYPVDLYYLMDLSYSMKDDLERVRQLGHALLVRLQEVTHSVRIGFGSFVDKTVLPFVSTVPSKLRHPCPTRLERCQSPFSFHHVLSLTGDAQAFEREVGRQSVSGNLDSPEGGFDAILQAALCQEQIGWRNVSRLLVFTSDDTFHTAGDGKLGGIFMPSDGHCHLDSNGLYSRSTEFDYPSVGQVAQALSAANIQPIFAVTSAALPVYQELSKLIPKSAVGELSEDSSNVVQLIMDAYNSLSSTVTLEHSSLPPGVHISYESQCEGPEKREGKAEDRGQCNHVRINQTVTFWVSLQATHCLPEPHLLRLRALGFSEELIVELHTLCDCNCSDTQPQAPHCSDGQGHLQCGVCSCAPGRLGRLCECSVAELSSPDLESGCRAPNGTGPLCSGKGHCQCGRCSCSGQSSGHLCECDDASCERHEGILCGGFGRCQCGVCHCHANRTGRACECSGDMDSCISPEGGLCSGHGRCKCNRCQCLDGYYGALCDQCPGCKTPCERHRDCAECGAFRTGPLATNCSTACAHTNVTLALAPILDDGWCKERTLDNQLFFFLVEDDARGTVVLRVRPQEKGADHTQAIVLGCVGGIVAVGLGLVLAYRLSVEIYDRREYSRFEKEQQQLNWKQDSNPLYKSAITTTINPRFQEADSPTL
Experiment: α4β7 integrin cell capture assay
Type: cell-based
Conditions: Table 1; capture of RPM18866 cells on MadCAM-1 extracellular domain-coated plate
Experimental: The potency of inhibitors in preventing α4β7 integrin interaction with MadCAM-1 was measured by monitoring the capture of α4β7 integrin expressing cells on a recombinant MadCAM-1 extracellular domain-coated plate. […] The plates were then washed with PBS and blocked with 3% BSA for 2 hours before being washed again.
RPM18866 cells were spun down and re-suspended in assay medium (DMEM+0.5% FBS+0.5 mM MnCl2) at a density of 0.5×10^6 cells/mL. […] The plates were incubated at 37° C. for 1 hour. 50 μL of cells were transferred to the blocked, MadCAM-1-coated plates and incubated for 30 minutes at 37° C. […] The plates were incubated for 90 minutes at room temperature. The plates were then washed 3 times with 70 μL of PBS per well and imaged on a Cellomics ArrayScan instrument. The cells that were bound to the plate were counted and plotted against the compound concentration to determine the EC50 of the test compounds.

EC50 [nM]	Compound
60.6	(S)-3-(8-(2-chloro-4-cyanophenyl)quinolin-5-yl)-2-(2,6-difluoro-4-((R)-3-(trifluoromethyl)morpholino)benzamido)propanoic acid [Example 148]
0.6	CC[C@@H](Nc1cc(F)c(C(=O)N[C@@H](Cc2ccc(-c3c(C(F)(F)F)c4cc(F)ccc4n(C)c3=O)c3ncccc23)C(=O)O)c(F)c1)C(F)(F)F [Example 124]

The next lines start with the compound.

Compound	EC50 [nM]
N#Cc1ccc(-c2ccc(C[C@H](NC(=O)c3c(F)cc(N4CCOC[C@@H]4C(F)(F)F)cc3F)C(=O)O)c3cccnc23)c(Cl)c1 (single isomer, unassigned) [Example 82]	4.7
N#Cc1ccc(-c2ccc(C[C@H](NC(=O)c3c(F)cc(N4CCOC[C@H]4C(F)(F)F)cc3F)C(=O)O)c3cccnc23)c(Cl)c1 (single isomer, unassigned) [Example 83]	32.9
O=C(N[C@@H](Cc1ccc(-c2cccc3c2OCCO3)c2ncccc12)C(=O)O)c1c(F)cc(NS(=O)(=O)c2ccc(-c3ccnc(F)c3)cc2)cc1F [Example 51]	2.9
CC[C@@H](Nc1cc(F)c(C(=O)N[C@@H](Cc2ccc(-c3cn(C)c(=O)n(C)c3=O)c3ncccc23)C(=O)O)c(F)c1)C(F)(F)F [Example 113, (S)-2-(2,6-difluoro-4-(((R)-1,1,1-trifluorobutan-2-yl)amino)benzamido)-3-(8-(1,3-dimethyl-2,4-dioxo-1,2,3,4-tetrahydropyrimidin-5-yl)quinolin-5-yl)propanoic acid]	1.2
O=C(N[C@@H](Cc1ccc(-c2ncc3ccccc3c2Cl)c2ncccc12)C(=O)O)c1c(F)cccc1F [Example 66, (S)-3-(8-(4-chloroisoquinolin-3-yl)quinolin-5-yl)-2-(2,6-difluorobenzamido)propanoic acid]	18.9
N#Cc1ccc(-c2ccc(C[C@H](NC(=O)c3c(F)cc(NC(C4CC4)C(F)(F)F)cc3F)C(=O)O)c3cccnc23)c(Cl)c1 (some centres unmarked) [Example 89]	14.4
2,6-difluoro-4-(3-(trifluoromethyl)morpholino)benzoic acid [Example 81]	6
COc1cc(F)cc(C(F)(F)F)c1-c1ccc(C[C@H](NC(=O)c2c(F)cccc2F)C(=O)O)c2cccnc12 (single isomer, unassigned) [Example 8]	41.4
COc1cc(F)cc(C(F)(F)F)c1-c1ccc(C[C@H](NC(=O)c2c(F)cccc2F)C(=O)O)c2cccnc12 (single isomer, unassigned) [Example 7]	1.9

Same assay, conditions: Table 2; capture of RPM18866 cells on MadCAM-1 extracellular domain-coated plate

EC50 [nM]	Compound
0.9	CC[C@@H](Nc1cc(F)c(C(=O)N[C@@H](Cc2ccc(-c3c(N4CCC4)cc(C)n(C)c3=O)c3ncccc23)C(=O)O)c(F)c1)C(F)(F)F [Example 184]
1.1	Cc1c(-c2ccc(C[C@H](NC(=O)c3c(F)cc(N[C@H](C)C(F)(F)F)cc3F)C(=O)O)c3cccnc23)c(=O)n(C)c2ccc(F)cc12 (atropisomer, axis not shown) [Example 187]

Same assay, conditions: capture of α4β7 integrin expressing RPM18866 cells on MadCAM-1 extracellular domain-coated plate

EC50 [nM]	Compound
0.1	Cc1cc(N2CCOC[C@@H]2C(F)(F)F)cc(F)c1C(=O)N[C@@H](Cc1ccc(-n2c(=O)c3cccnc3n(C)c2=O)c2ncccc12)C(=O)O [Example 402]
